Data on 9 compounds can be found in US6429212B1, “Medicinal composition” (Ishihara Sangyo Kaisha Ltd., priority 1996, dated 2002).

Test [1] deals with TNF-α production or secretion by human leukemia cells HL-60 (TPA stimulation). The test can be described thus: Influence on TNF-α production or secretion by HL-60 cells stimulated by TPA (ELISA of supernatant). It is filed as cell-based. As to conditions: HL-60, TPA 10 nM; for Amount of TNF (%), TPA alone = 100%: compound 10 μM, 16 hours (Test Example 3); for amount of TNF-α in the supernatant, TPA alone = 100%: 16 hours (Table 9). Here is the method:
(§1) Human leukemia cells HL-60 produce tumor necrosis factor (TNF-α) by stimulation of Okadaic acid (9,10-Deepithio-9,10-didehydroacanthifolicin) or 12O-tetradecanoyl phorbol-13-acetate (TPA). Influences of the compounds of the present invention to production or secretion of TNF-α by them were observed.
The same operation was carried out as in Test Example 1, except that TPA (produced by Sigma) having a final concentration of 10 nM was used, instead of Okadaic acid having a final concentration of 50 nM.
The values in the Table are values obtained by supposing the amount of TNF-α in the supernatant of the culture medium when treated only with TPA having a final concentration of 10 nM, 100%.
Human leukemia cells (HL-60) produce tumor necrosis factor (TNF-α) by stimulation of 12O-tetradecanoyl phorbol-13-acetate (TPA). The influences of the compounds of the present invention to production of TNF-αby it were observed.
(§2) Human leukemia cells (HL-60) were cultured by using a RPMI 1640 culture medium (including 5% fetal bovine serum), in a carbonic acid gas incubator (5% CO2, humidified, 37° C.). Then, the cells were pre-cultured in a RPMI 1640 culture medium (including 10% fetal bovine serum). TPA was added thereto, so that the final concentration was 10 nM based on the HL-60 cells (5×10^5 cells/ml) in an exponentially growing stage. Then, the compound of the present invention was added thereto so that the predetermined concentration could be obtained, to prepare a cell suspension, which was then cultured in a carbonic gas incubator (5% CO2, humidified, 37° C.). In this culture, a multiplate having 24 holes (produced by Corning) was used, and the cell suspension was injected in an amount of 0.5 ml per hole, to culture the cells.
16 hours after the culture started, the cells were removed by centrifugation(1000-2000 rpm×10 min), and the amount of TNF-α in the supernatant was measured in accordance with the method of Amersham, by using human TNF-α ELISA system (produced by Amersham).
The values are obtained by supposing the amount of TNF-α when treated only with TPA having a final concentration of 10 nM, 100%.
The influences of the compounds of the present invention to production or secretion of TNF-α by TPA stimulation were observed, in the same manner as in Test Example 2.
(In general: ELISA stands for enzyme-linked immunosorbent assay.)

Test [2] deals with angiogenesis under skin of mice. The test can be described thus: Angiogenesis under skin of mice (b-FGF matrigel, amount of hemoglobin). It is filed as in vivo, BALB/c male mice. The arrangement: key to Amount of hemoglobin, value in parentheses (Control = 100): % of control (control = 100), hemoglobin per matrigel. Here is the method: By subcutaneously injecting a mixture having recombinant human fibroblast growth factor-basic added to matrigel, to the back of a mice, angiogenesis occurs under skin of the mice. By measuring the amount of hemoglobin in matrigel, angiogenesis can be quantified. Influences of the compounds of the present invention to angiogenesis were observed.
Matrigel (trademark; basement membrane matrix, phenol is not included, purchased from Becton Dickinson Labware) was added to Dulbecco's modified Eagle's medium (purchased from Sigma), so that the concentration was 9 mg/ml. Recombinant Human Fibroblast Growth Factor-basic (b-FGF, produced by Intergen) was added thereto, so that the concentration was 2 μg/700 μl. The mixture was subcutaneously injected to 6-week BALB/c male mice (Charles River Japan Inc.) in an amount of 700 μl per mouse. Everyday after matrigel injection, a suspension having the compound of the present invention added to 0.8% Tween 80 (purchased from Nacalai Tesque), so that the predetermined concentration could be obtained, was intraperitoneally injected to the mice. 8 days after matrigel injection, matrigel was taken out from the mice, which was then placed in 200 μl of 1% NH4OH at room temperature for 4 hours, to extract hemoglobin. The extraction and matrigel together were subjected to centrifugal separation (10000 rpm, 5 min). 100 μl of the obtained supernatant and 500 μl of Drabkin's reagent (purchased from Sigma) were mixed and left at room temperature. After left more than 15 minutes, absorbance of the supernatant at a wavelength of 540 nm was measured by using a spectrophotometer SPECTRA max 250 (produced by Molecular Devices). The amount of hemoglobin in the supernatant was obtained from the standard curve prepared by using hemoglobin standard (purchased from Sigma), and the amount of hemoglobin per matrigel obtained from a mouse was calculated.
The amount of the hemoglobin in each treatment fraction was corrected by the amount of hemoglobin wherein matrigel having no b-FGF added was injected to the mice, and 0.8% Tween 80 as a solvent alone was injected everyday.
Influences of the compounds of the present invention to angiogenesis under skin of mice were observed, in the same manner as in Test Example 8.

Test [3] relates to TNF-α production or secretion by human leukemia cells HL-60 (Okadaic acid stimulation). Kind of test: Influence on TNF-α production or secretion by HL-60 cells stimulated by Okadaic acid (ELISA of supernatant). It is filed as cell-based. As to conditions: for amount of TNF-α in the supernatant, Okadaic acid alone = 100%: HL-60, Okadaic acid 50 nM, 16 hours (Table 8); for amount of TNF-α, Okadaic acid alone = 100%: HL-60, Okadaic acid stimulation (Table 14). Here is the method:
as §1
as §2, with “bovine serum). Okadaic acid was added” for “bovine serum). TPA was added”, “concentration was 50 nM based” for “concentration was 10 nM based”, “a carbonic acid gas incubator” for “a carbonic gas incubator”
16 hours after the culture started, the cells were removed by centrifugation (1000-2000 rpm×10 min), and the amount of TNF-α in the supernatant was measured in accordance with the method of Amersham, by using human TNF-α ELISA system (produced by Amersham).
The values in the Table are values obtained by supposing the amount of TNF-αin the supernatant of the culture medium when treated only with Okadaic acid having a final concentration of 50 nM, 100%.
Influences of the compounds of the present invention to production or secretion of TNF-α by Okadaic acid stimulation were observed, in the same manner as in Test Example 1.

[4] abbreviates: 5 mg/kg, experiment (b) (Table 15).
[5] abbreviates: 5 mg/kg, experiment (b), Control 83.3 (Table 15).

Regarding `CC(C)c1cccc(C(C)C)c1N1C(=O)c2cc3ccccc3cc2C1=O` [Compound B-3, N-(2,6-diisopropylphenyl) 2,3-naphthalimide], the “Amount of TNF (%), TPA alone = 100%” value in test [1] is listed as 134%.
As for `C[C@H](c1cccc2ccccc12)N1C(=O)c2c(F)c(F)c(F)c(F)c2C1=O` [Compound 50, (R)-2-(1-naphthylethyl)-4,5,6,7-tetrafluoro-1H-isoindole-1,3-dione], in test [2] (setting [4]), the “Amount of hemoglobin, value in parentheses (Control = 100)” value (shortened to “Amount of hemoglobin, value”) turned out to be 79. Further, the Amount of hemoglobin in test [2] (setting [5]) was found to be 65.4 μg/gel. For the same compound, the “amount of TNF-α in the supernatant, Okadaic acid alone = 100%” value amounted to 100% in test [3] (compound 1 nM), 88% in test [3] (compound 10 nM), 43% in test [3] (compound 100 nM) and 2% in test [3] (compound 0.3 μM). Moreover, the “amount of TNF-α in the supernatant, TPA alone = 100%” value (shortened to “amount of TNF-α … TPA alone = 100%”) in test [1] (compound 10 nM), in test [1] (compound 100 nM) and in test [1] (compound 0.3 μM) was 100% in each case.
Regarding `C[C@@H](C1CCCCC1)N1C(=O)c2c(F)c(F)c(F)c(F)c2C1=O` [Compound 68, (S)-2-(1-cyclohexylethyl)-4,5,6,7-tetrafluoro-1H-isoindole-1,3-dione], the “amount of TNF-α in the supernatant, Okadaic acid alone = 100%” value in test [3] (compound 1 nM) was 102%; in test [3] (compound 10 nM), 101%; in test [3] (compound 100 nM) it was 96%; in test [3] (compound 0.3 μM), 65%. Also, the “amount of TNF-α … TPA alone = 100%” value in test [1] (compound 10 nM) is given as 103%; in test [1] (compound 100 nM) it was 115%; in test [1] (compound 0.3 μM), 124%.
As for `O=C1c2ccccc2C(=O)N1c1ccccc1` [Compound 201, N-phenylphthalimide], the “amount of TNF-α, Okadaic acid alone = 100%” value in test [3] (compound 1 μM) amounted to 100%; in test [3] (compound 3 μM) it was 100%; in test [3] (compound 10 μM) it was 82%; in test [3] (compound 30 μM), 60%; in test [3] (compound 100 μM) it was 41%.
As to `C[C@@H](c1ccccc1)N1C(=O)c2c(F)c(F)c(F)c(F)c2C1=O` [Compound 17, (S)-2-(1-phenylethyl)-4,5,6,7-tetrafluoro-1H-isoindole-1,3-dione], the “Amount of hemoglobin, value” value is recorded as 21 in test [2] (1 mg/kg, experiment (b) (Table 15)) and 31 in test [2] (setting [4]). In addition, the Amount of hemoglobin in test [2] (1 mg/kg, experiment (b), Control 83.3 (Table 15)) was 17.3 μg/gel; in test [2] (setting [5]), 25.7 μg/gel. Further, the “amount of TNF-α in the supernatant, Okadaic acid alone = 100%” value in test [3] (compound 1 nM) stood at 100%; in test [3] (compound 10 nM), 99%; in test [3] (compound 100 nM), 95%; in test [3] (compound 0.3 μM) it was 70%. Moreover, the “amount of TNF-α … TPA alone = 100%” value in test [1] (compound 10 nM) came to 102%; in test [1] (compound 100 nM) it was 120%; in test [1] (compound 0.3 μM), 143%.
As for `CC(C)c1cccc(C(C)C)c1N1C(=O)Cc2ccccc2C1=O` [Compound A-3, N-(2.6-diisopropylphenyl)-homophthalimide], the “Amount of TNF (%), TPA alone = 100%” value in test [1] is reported as 258%.
`CC(C)c1cccc(C(C)C)c1N1C(=O)c2ccccc2C1=O` [Compound 202, N-(2.6-diisopropylphenyl)-phthalimide]: the “Amount of hemoglobin, value” value turned out to be 77 in test [2] (10 mg/kg, experiment (a) (Table 15)) and 50 in test [2] (100 mg/kg, experiment (a) (Table 15)). Moreover, the Amount of hemoglobin was 235.4 μg/gel in test [2] (10 mg/kg, experiment (a), Control 307.3 (Table 15)) and 152.5 μg/gel in test [2] (100 mg/kg, experiment (a), Control 307.3 (Table 15)). Further, the “amount of TNF-α, Okadaic acid alone = 100%” value in test [3] (compound 1 μM) worked out at 100%; in test [3] (compound 3 μM) it was 80%; in test [3] (compound 10 μM), 43%; in test [3] (compound 30 μM) it was 20%; in test [3] (compound 100 μM), 9%.
`C[C@@H](c1cccc2ccccc12)N1C(=O)c2c(F)c(F)c(F)c(F)c2C1=O` [Compound 49, (S)-2-(1-naphthylethyl)-4,5,6,7-tetrafluoro-1H-isoindole-1,3-dione]: the “amount of TNF-α in the supernatant, Okadaic acid alone = 100%” value in test [3] (compound 1 nM) was found to be 100%; in test [3] (compound 10 nM), 102%; in test [3] (compound 100 nM) it was 100%; in test [3] (compound 0.3 μM), 101%. For the same compound, the “amount of TNF-α … TPA alone = 100%” value in test [1] (compound 10 nM) is on record as 100%; in test [1] (compound 100 nM), 99%; in test [1] (compound 0.3 μM), 101%.
For `CC(C)c1cccc(C(C)C)c1N1C(=O)c2c(F)c(F)c(F)c(F)c2C1=O` [Compound 203, N-(2,6-diisopropylphenyl)-4,5,6,7-tetra-fluoro-phthalimide], the “Amount of hemoglobin, value” value in test [2] (1 mg/kg, experiment (a) (Table 15)) came out at 69. In test [2] (1 mg/kg, experiment (a), Control 307.3 (Table 15)), the Amount of hemoglobin was found to be 211.4 μg/gel. In addition, the “amount of TNF-α, Okadaic acid alone = 100%” value in test [3] (compound 1 nM) is 100%; in test [3] (compound 3 nM), 93%; in test [3] (compound 10 nM) it was 75%; in test [3] (compound 30 nM), 42%; in test [3] (compound 100 nM), 0%.
